Assay results from paper PMC4073285, “Exploring the molecular mechanisms of electron shuttling across the microbe/metal space” (Frontiers in Microbiology, 2014).

What was measured:
UndA = target: T1, UndA (Shewanella sp. HRCR_06, UniProt F8UWD6); experiment: 1H NMR titration (heme methyl shifts); type: binding; details: oxidized protein; 20 mM potassium phosphate pH 7.6, 100 mM KCl, 2H2O, 25 °C
T1 construct: recombinant soluble undecaheme cytochrome from E. coli JM109(DE3) periplasm with pEC86; stop codon after the gene removes V5 and His6 tags; C-terminus encoded by primer GVDKVHPVKY

OmcA [1] = target: T2, OmcA (Shewanella oneidensis, UniProt Q8EG33); experiment: 1H NMR titration (heme methyl shifts); type: binding; details: oxidized protein; 20 mM potassium phosphate pH 7.6, 100 mM KCl, 2H2O, 25 °C
T2 construct: recombinant soluble decaheme cytochrome expressed in S. oneidensis MR-1 from pBAD202/D-TOPO; stop codon after the gene removes V5 and His6 tags; C-terminus encoded by primer ...AIDGSTR N not altered (ends MEAHGN)

MtrC [2] = target: T3, MtrC (Shewanella oneidensis, UniProt Q8EG34); experiment: 1H NMR titration (heme methyl shifts); type: binding; details: oxidized protein; 20 mM potassium phosphate pH 7.6, 100 mM KCl, 2H2O, 25 °C
T3 construct: recombinant soluble decaheme cytochrome from E. coli JM109(DE3) periplasm with pEC86; stop codon after the gene removes V5 and His6 tags; C-terminus encoded by primer HTKVKM

MtrC [3] = target: T3, MtrC; experiment: […] NMR titration; type: binding; details: read-out: βd
OmcA [4] = target: T2, OmcA; experiment: […] NMR titration; type: binding; details: read-out: βd
MtrF = target: T4, MtrF (Shewanella oneidensis, UniProt Q8EG32); experiment: stopped-flow oxidation of reduced cytochrome at […] nm; type: biochemical; details: electron acceptor; 11 μM PMS, 0.31 μM protein, pH 7.6, 25 °C, anaerobic
T4 construct: recombinant soluble decaheme cytochrome expressed in S. oneidensis MR-1; stop codon after the gene removes V5 and His6 tags
T4 sequence (Q8EG32 24-639): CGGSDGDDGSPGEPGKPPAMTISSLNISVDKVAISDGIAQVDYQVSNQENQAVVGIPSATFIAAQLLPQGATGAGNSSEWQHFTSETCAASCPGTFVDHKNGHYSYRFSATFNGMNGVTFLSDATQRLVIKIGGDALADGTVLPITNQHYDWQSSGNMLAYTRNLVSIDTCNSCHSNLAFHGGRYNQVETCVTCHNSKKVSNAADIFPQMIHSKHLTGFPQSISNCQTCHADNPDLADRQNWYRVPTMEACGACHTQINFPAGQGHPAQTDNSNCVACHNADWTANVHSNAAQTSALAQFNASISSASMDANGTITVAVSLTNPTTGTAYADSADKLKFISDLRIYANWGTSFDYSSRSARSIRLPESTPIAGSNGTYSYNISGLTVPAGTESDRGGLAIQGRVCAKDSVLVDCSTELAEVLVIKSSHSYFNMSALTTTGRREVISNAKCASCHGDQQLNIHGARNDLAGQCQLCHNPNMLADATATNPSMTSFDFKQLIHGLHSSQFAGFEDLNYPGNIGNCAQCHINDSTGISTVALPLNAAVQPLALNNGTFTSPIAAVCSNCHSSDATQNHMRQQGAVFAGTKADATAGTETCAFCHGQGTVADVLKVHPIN

T3 sequence (Q8EG34 entry or part of it): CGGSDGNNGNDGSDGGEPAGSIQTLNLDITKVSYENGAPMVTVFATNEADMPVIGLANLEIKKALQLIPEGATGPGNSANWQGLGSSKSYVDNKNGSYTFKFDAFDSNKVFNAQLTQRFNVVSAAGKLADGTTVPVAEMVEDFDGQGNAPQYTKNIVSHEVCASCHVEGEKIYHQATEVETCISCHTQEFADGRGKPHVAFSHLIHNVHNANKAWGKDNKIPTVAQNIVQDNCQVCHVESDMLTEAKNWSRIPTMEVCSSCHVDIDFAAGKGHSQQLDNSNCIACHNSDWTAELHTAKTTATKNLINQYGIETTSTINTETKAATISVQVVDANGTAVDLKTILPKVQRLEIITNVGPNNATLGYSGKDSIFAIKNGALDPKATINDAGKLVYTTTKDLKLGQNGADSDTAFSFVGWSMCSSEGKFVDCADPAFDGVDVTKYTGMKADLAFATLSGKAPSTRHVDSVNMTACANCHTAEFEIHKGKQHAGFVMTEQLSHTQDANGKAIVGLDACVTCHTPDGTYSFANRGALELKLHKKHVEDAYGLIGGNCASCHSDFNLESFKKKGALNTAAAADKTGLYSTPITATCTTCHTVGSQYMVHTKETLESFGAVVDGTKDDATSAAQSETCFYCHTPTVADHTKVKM
T2 sequence (Q8EG33 entry or part of it): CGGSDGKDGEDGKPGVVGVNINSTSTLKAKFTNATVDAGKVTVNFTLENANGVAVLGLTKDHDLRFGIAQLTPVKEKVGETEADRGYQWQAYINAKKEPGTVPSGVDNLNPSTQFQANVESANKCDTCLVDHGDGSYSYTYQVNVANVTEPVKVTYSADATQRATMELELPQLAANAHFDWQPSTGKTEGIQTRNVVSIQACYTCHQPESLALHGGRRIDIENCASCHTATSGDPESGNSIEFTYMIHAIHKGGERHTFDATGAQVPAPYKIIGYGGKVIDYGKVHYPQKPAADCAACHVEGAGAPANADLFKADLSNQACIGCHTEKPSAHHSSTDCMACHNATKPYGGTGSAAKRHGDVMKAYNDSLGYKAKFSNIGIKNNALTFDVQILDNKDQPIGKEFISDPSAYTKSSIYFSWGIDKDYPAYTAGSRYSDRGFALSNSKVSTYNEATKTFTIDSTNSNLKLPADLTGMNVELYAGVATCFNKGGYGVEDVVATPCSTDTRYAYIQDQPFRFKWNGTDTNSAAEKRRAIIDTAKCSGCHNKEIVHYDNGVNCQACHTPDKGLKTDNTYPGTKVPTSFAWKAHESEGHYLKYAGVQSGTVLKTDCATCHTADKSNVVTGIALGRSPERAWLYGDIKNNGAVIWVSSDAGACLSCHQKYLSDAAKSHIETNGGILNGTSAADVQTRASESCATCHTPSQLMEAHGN
T1 sequence (F8UWD6 entry or part of it): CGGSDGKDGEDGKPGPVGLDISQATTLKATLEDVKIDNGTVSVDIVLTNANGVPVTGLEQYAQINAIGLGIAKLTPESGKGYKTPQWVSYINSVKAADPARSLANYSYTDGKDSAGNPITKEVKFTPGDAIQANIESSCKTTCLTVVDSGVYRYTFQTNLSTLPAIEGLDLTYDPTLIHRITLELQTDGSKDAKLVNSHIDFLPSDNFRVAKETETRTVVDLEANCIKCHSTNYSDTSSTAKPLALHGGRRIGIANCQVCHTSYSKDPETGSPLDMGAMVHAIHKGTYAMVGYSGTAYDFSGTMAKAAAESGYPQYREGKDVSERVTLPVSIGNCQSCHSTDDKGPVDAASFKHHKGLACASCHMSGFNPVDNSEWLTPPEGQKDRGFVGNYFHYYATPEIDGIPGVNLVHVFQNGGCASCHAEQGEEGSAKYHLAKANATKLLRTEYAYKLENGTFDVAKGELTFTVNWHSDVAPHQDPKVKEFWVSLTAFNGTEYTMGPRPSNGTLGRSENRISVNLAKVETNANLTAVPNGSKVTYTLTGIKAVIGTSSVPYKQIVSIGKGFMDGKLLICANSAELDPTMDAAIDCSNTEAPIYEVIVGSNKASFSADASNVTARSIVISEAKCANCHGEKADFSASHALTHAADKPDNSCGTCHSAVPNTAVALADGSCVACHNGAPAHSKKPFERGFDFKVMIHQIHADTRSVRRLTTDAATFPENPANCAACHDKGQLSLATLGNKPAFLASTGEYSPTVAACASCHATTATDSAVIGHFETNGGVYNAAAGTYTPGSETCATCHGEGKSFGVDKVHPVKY

Kd (MtrC [3]) [µM] | Kd (OmcA [4]) [µM] | SMILES | 1H NMR titration (heme methyl shifts) (UndA) | 1H NMR titration (heme methyl shifts) (OmcA [1]) | 1H NMR titration (heme methyl shifts) (MtrC [2]) | stopped-flow oxidation of reduced cytochrome at 552 nm (MtrF)
– | – | O=C1c2ccc(S(=O)(=O)O)cc2C(=O)c2ccc(S(=O)(=O)O)cc21 [AQDS, Anthraquinone 2,6-disulfonate] | the addition of AQDS promoted noticeable spectral changes in OmcA, MtrC, and UndA | the addition of AQDS promoted noticeable spectral changes in OmcA, MtrC, and UndA | the addition of AQDS promoted noticeable spectral changes in OmcA, MtrC, and UndA | –
255 | 29 | Cc1cc2nc3c(=O)[nH]c(=O)nc-3n(C[C@H](O)[C@H](O)[C@H](O)COP(=O)(O)O)c2cc1C [FMN, Flavin mononucleotide] | – | – | – | –
– | – | C[n+]1c2ccccc2nc2ccccc21 [PMS, Phenazine methosulfate] | – | RF, FMN, and PMS, only promoted significant changes in the heme signals of OmcA | only promoted significant changes in the heme signals of OmcA and MtrC | PMS oxidized all the cytochromes at a rate too fast to be measured
– | – | Cc1cc2nc3c(=O)[nH]c(=O)nc-3n(C[C@H](O)[C@H](O)[C@H](O)CO)c2cc1C [RF, Riboflavin] | – | RF, FMN, and PMS, only promoted significant changes in the heme signals of OmcA | only promoted significant changes in the heme signals of OmcA and MtrC | –
